# Experimental data from patent US20250134895A1, “METHODS AND COMPOSITIONS FOR TREATING ALPHA-SYNUCLEIN-MEDIATED NEURODEGENERATION” (UNIVERSITY HEALTH NETWORK, priority 2021, published 2025).
# Assays:
# α-synuclein oligomers [1] = biological target: T1, α-synuclein oligomers (Homo sapiens, UniProt P37840); experiment: Gaussia luciferase protein-fragment complementation cell assay of α-synuclein oligomers in H4 neuroglioma cells; type: cell-based; design: full-length human α-synuclein fused to the N-terminal fragment of Gaussia princeps luciferase (syn-luc1); full-length human α-synuclein fused to the C-terminal fragment of Gaussia princeps luciferase (syn-luc2); expressed in transfected cells; host or cells: H4 neuroglioma cells (ATCC, HTB-148), transient co-transfection; settings: for α-syn oligomers as measured by luciferase activity / decrease in luciferase activity compared with vehicle alone: 1 μM or 10 μM; for α-syn oligomers as measured by luciferase activity: Example 9; for decrease in luciferase activity compared with vehicle alone: 24 hours of treatment
# Description: (§1) For controls in this assay, vehicle (i.e., DMSO), rapamycin, and bafilomycin A were used. Rapamycin, or sirolimus, is a small molecule that activates autophagy by inhibiting mTOR (mammalian target of rapamycin). […] To test this possibility, cells expressing α-synuclein were treated with each of the compounds and a cell permeable, resazurin-based assay was used to test for cell viability.
# (§2) H4 neuroglioma cells (ATCC, HTB-148) were maintained in Dulbecco's Modified Eagle Medium plus high glucose, L-glutamine, and sodium pyruvate (ThermoFisher, 11995-065) with 10% heat-inactivated fetal bovine serum (ThermoFisher, 16140071) and 1% antibiotic-antimycotic cocktail (ThermoFisher, 15240062) at 37° C. and 5% CO2. DNA expression constructs encoding for full-length human α-synuclein fused to the N-terminal fragment of Gaussia princeps luciferase (syn-luc1), full-length human α-synuclein fused to the C-terminal fragment of Gaussia princeps luciferase (syn-luc2), and full-length Gaussia princeps luciferase were kindly provided by Dr. Pamela McLean, Mayo Clinic Jacksonville.^33 Cells were transiently co-transfected with syn-luc1 and syn-luc2 or transfected with luciferase alone using Superfect transfection reagent (Qiagen, 301305) according to the manufacturer's instructions. Twenty-four hours after transfection, cells were plated on a 96-well microplate at 60,000 cells per well. Twenty-four hours after plating, cells were treated with drugs or vehicle control. Following 24 hours of treatment, cells were washed 1 time with PBS and bioluminescence was measured using an automated CLARIOstar plate reader (Mandel, 430-0505). Cell permeable, native coelenterazine was used as the Gaussia luciferase substrate. Lyophilized coelenterazine (Nanolight, 303-500) was reconstituted in NanoFuel Solvent (Nanolight, 399-1), then diluted in PBS to 16.6 μg/mL, and dispensed per well to a final concentration of 20 μM). The bioluminescent signal generated by the luciferase enzyme was assessed at 470 nm over 5 seconds. Raw luminescence units were normalized to the DMSO vehicle control of each 96-well microplate. To assess cell viability, H4 neuroglioma cells were prepared and treated as described above and, 1 hour prior to viability analysis, cells were treated with PrestoBlue viability reagent (ThermoFisher, A13261) according to the manufacturer's instructions. Fluorescence was automatically measured using a CLARIOstar plate reader (Mandel, 430-0505) and then normalized to the fluorescence measure of the DMSO vehicle control.
# We used a bioluminescent protein-fragment complementation assay in which human H4 neuroglioma cells co-express human α-synuclein tagged with the N- or C-terminal half of Gaussia princeps luciferase (FIG. 12). Reconstitution of a complete and active luciferase molecule from the fragments occurs upon α-synuclein oligomerization, and so luminescence provides an indirect measure of α-synuclein oligomer levels. H4 neuroglioma cells were co-transfected with α-syn luciferase fragments, and constructs were plated into a 96-well plate and treated with either 1 μM or 10 μM of each of the 19 drug compounds.
# [2] = system: full-length Gaussia princeps luciferase; experiment: Activity of full-length Gaussia luciferase alone in H4 cells; type: cell-based
# Description: as §1, §2
# α-synuclein oligomers [3] = biological target: T1, α-synuclein oligomers; experiment: Venus YFP protein-fragment complementation assay in rat primary cortical neurons; type: cell-based; settings: 72 hours; for YFP fluorescence compared with vehicle control: 10 μM
# [4] = system: transgenic A30P α-synuclein C. elegans; experiment: Coiler score and locomotion of C. elegans expressing A30P α-synuclein in dopaminergic neurons; type: in vivo, Caenorhabditis elegans; settings: for reduction in coiling compared with vehicle alone (decrease): 100 μM of drug, 3 days on drug plates
# Description: Using high-resolution, multi-worm tracking with custom image processing, methods were developed for semi-automated and blinded scoring of circularity for a population of simultaneously recorded animals (n=10 per recording). A coiler score was determined for the population tested by first calculating the circularity value for each animal in each frame of video and then calculating the proportion of circularity values >0.6. […] The coiler phenotype is an abnormal motor behaviour previously reported for several unc C. elegans strains with mutations affecting neuronal function.
# Animals were synchronized by isolating eggs using alkaline hypochlorite treatment and hatching overnight. Larvae were plated onto NGM agar plates with OP50 and grown for 4 days before recording locomotion. For individual C. elegans recordings, a single adult animal was randomly picked, washed for 1 to 2 minutes in M9 buffer, and then transferred to a fresh NGM plate without food for imaging. Video images were acquired (2 frames per second) for up to 6 minutes using a sCMOS camera (pco.edge, PCO) mounted on a stereomicroscope (Olympus MVX10 MacroView) controlled using the μManager software.^55 A total of 40 individual animals were imaged for each strain. For C. elegans population recordings, ten adult animals were randomly removed using an eyelash pick, washed for 1 minute in M9 buffer, and then transferred to a fresh NGM plate without food, with a ring of copper sulfate solution (150 mM) around the area of recording (a chemorepellent to keep the animals in the recording frame). Exploratory locomotion was recorded using a CCD camera (GX1920, Allied Vision) which was attached to a dissecting stereomicroscope (Leica M165C, 1.0× PlanApo lens). A Labview program captured video (2 frames per second) at 1936×1456 resolution. Using ImageJ, the displacement, perimeter, and area of each animal was calculated, from which a circularity value was computed using the following formula: circularity=4π(A/P^2), where A is the area of the animal's body and P is the perimeter of the animal's body (both expressed in arbitrary pixel units). […] Using MATLAB (Mathworks), various behavioural metrics including the coiler score were calculated, which is the percentage of frames with a circularity value >0.6. Speed was automatically computed from the ImageJ based WrmTrk plugin as the distance travelled by each animal (in pixels) over the amount of time that it was tracked (in seconds).56 Average speed was determined by calculating the weighted average of each tracked animal's speed within a single population of animals. On the day of the recording for dopamine or raclopride treatment, adult animals were washed for 1 minute in M9 buffer, treated in a solution containing either drug for 1 minute, and then placed onto fresh NGM plates without food, with a copper sulfate solution ring around the area of recording. […] Drug plates were prepared by adding each drug to LB medium with OP50 before spreading onto fresh NGM plates. The solvent used to dissolve each drug was used as vehicle control for the drug treatment experiments (M9 buffer for dopamine, distilled water for raclopride, DMSO for all other drugs).
# After 72 hours of drug treatment, animals were randomly picked, washed, and recorded. A total of ten worms were recorded per population, and twelve populations were recorded for each of the four treatment groups. Locomotion was recorded for each population over a total of 1800 frames over three minutes. The animal's movement speed, area, and perimeter were automatically analyzed as previously described. Coiler score was calculated automatically using a ratio of the animal's area to perimeter, where a higher coiler score would represent a greater degree of α-synuclein-induced dopaminergic neuron dysfunction in vivo.
# H4 neuroglioma cells = settings: for reduced cell survival: human, 24 h
# Description: as §1, §2
smiles,measurement,setting,value
CCCC(=O)Nc1ccc(OCC(O)CNC(C)C)c(C(C)=O)c1 (stereo not shown) [Acebutolol],α-syn oligomers as measured by luciferase activity,α-synuclein oligomers [1],significant decrease
same,changes in the activity of full-length Gaussia luciferase alone,"[2]; 10 μM, FIG. 14",No statistically significant changes
same,YFP fluorescence compared with vehicle control,α-synuclein oligomers [3],No significant differences
CC(=O)Nc1ccc(O)cc1 [Acetaminophen],decrease in luciferase activity compared with vehicle alone,α-synuclein oligomers [1],14%
same,changes in the activity of full-length Gaussia luciferase alone,"[2]; Example 5, FIG. 5c",No statistically significant changes
same,reduction in coiling compared with vehicle alone (decrease),[4],32%
same,changes in viability,H4 neuroglioma cells,No statistically significant changes
"CO/C1=C\C(C)=C\[C@@H](C)[C@@H](O)[C@@H](C)C/C(C)=C/C=C/[C@H](OC)[C@@H]([C@@H](C)[C@@H](O)[C@H](C)[C@@]2(O)C[C@@H](O)[C@H](C)[C@@H](C(C)C)O2)OC1=O [Bafilomycin A1, bafilomycin A1]",change in α-synuclein oligomer levels (active controls),"α-synuclein oligomers [1]; rapamycin 2 μM, bafilomycin A1 50 nM",increase
CN(C)CCCOc1nn(Cc2ccccc2)c2ccccc12 [Benzydamine],α-syn oligomers as measured by luciferase activity,α-synuclein oligomers [1],significant decrease
Cn1c(=O)c2c(ncn2C)n(C)c1=O [Caffeine],decrease in luciferase activity compared with vehicle alone,α-synuclein oligomers [1],16%
same,changes in the activity of full-length Gaussia luciferase alone,"[2]; Example 5, FIG. 5c",No statistically significant changes
same,reduction in coiling compared with vehicle alone (decrease),[4],37%
Oc1c(I)cc(Cl)c2cccnc12 [Clioquinol],α-syn oligomers as measured by luciferase activity,α-synuclein oligomers [1],significant decrease
"NCCc1ccc(O)c(O)c1 [Dopamine, dopamine]",coiling with exogenous dopamine,"[4]; increasing concentrations, 1 minute treatment",decreased with treatment in a dose-dependent manner
COc1cc([C@@H]2c3cc4c(cc3[C@@H](O[C@@H]3O[C@@H]5CO[C@@H](C)O[C@H]5[C@H](O)[C@H]3O)[C@H]3COC(=O)[C@H]23)OCO4)cc(OC)c1O [Etoposide],decrease in luciferase activity compared with vehicle alone,α-synuclein oligomers [1],30%
same,reduced cell survival,H4 neuroglioma cells,> 15%
Nc1ccn([C@@H]2CS[C@H](CO)O2)c(=O)n1 [Lamivudine],α-syn oligomers as measured by luciferase activity,α-synuclein oligomers [1],significant decrease
same,changes in the activity of full-length Gaussia luciferase alone,"[2]; 10 μM, FIG. 14",No statistically significant changes
same,YFP fluorescence compared with vehicle control,α-synuclein oligomers [3],No significant differences
Sc1ncnc2nc[nH]c12 [Mercaptopurine],decrease in luciferase activity compared with vehicle alone,α-synuclein oligomers [1],17%
same,changes in the activity of full-length Gaussia luciferase alone,"[2]; Example 5, FIG. 5c",No statistically significant changes
same,effect on coiling / coiler score,"[4]; 100 μM, 72 hr, vs DMSO vehicle",no effect
same,changes in viability,H4 neuroglioma cells,No statistically significant changes
NC(=O)C[S+]([O-])C(c1ccccc1)c1ccccc1 (stereo not shown) [Modafinil],α-syn oligomers as measured by luciferase activity,α-synuclein oligomers [1],significant decrease
same,reduced cell viability (decrease),"H4 neuroglioma cells; 1-20 μM, Example 9",32%
same,concentration with significant loss in cell viability,"H4 neuroglioma cells; drugs 1-20 μM, FIG. 13",< 5 µM
CN1C(C(=O)Nc2ccccn2)=C(O)c2ccccc2S1(=O)=O [Piroxicam],decrease in luciferase activity compared with vehicle alone,α-synuclein oligomers [1],19%
same,reduced cell survival,H4 neuroglioma cells,> 15%
CO[C@H]1C[C@@H]2CC[C@@H](C)[C@@](O)(O2)C(=O)C(=O)N2CCCC[C@H]2C(=O)O[C@H]([C@H](C)C[C@@H]2CC[C@@H](O)[C@H](OC)C2)CC(=O)[C@H](C)/C=C(\C)[C@@H](O)[C@@H](OC)C(=O)[C@H](C)C[C@H](C)/C=C/C=C/C=C/1C [Rapamycin],decrease in fluorescence compared with vehicle alone,"α-synuclein oligomers [3]; losartan 100 μM, rapamycin 50 nM, rifabutin 20 μM",36%
same,reduction in coiling compared with vehicle alone (decrease),[4],30%
same,changes in viability,H4 neuroglioma cells,No statistically significant changes
Cn1c(=O)c2[nH]cnc2n(C)c1=O [Theophylline],decrease in luciferase activity compared with vehicle alone,α-synuclein oligomers [1],8%
CC[C@]1(O)C[C@H]2CN(CCc3c([nH]c4ccccc34)[C@@](C(=O)OC)(c3cc4c(cc3OC)N(C=O)[C@H]3[C@@](O)(C(=O)OC)[C@H](OC(C)=O)[C@]5(CC)C=CCN6CC[C@]43[C@@H]65)C2)C1 [Vincristine],decrease in luciferase activity compared with vehicle alone,α-synuclein oligomers [1],33%
same,reduced cell survival,H4 neuroglioma cells,> 15%
